# According to US20240067662A1, “KRAS INHIBITORS” (Bristol-Myers Squibb Company, priority 2022, published 2024):
# Target: GMPPNP-loaded KRAS G12C (Homo sapiens, UniProt P01116, G12C)
# Assay: KRAS G12C RAF Disruption Assay (HTRF)
# Assay type: biochemical
# Settings: recombinant GMPPNP-loaded KRAS G12C (5 nM), 20 min with compound; GST-RAF1 RBD (9 nM); HTRF signal; read-out: KRASG12C RAF Disruption Assay (IC50)
# Method in brief: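 The read-out is an HTRF 520/495 emission ratio, with IC50 taken from dose-response curves. Compound was first incubated for 20 min at room temperature with active-state KRAS G12C (GMPPNP, 5 nM) in Tris pH 7.5/NaCl/MgCl2/DTT/BSA. RAF1 RBD-GST (9 nM, 20 min) and SA-Tb (0.25 nM, 3 h) were added in turn.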
row,IC50 [nM],Molecule
1,4.5,"C#Cc1c(F)ccc2cc(O)cc(-c3ncc4c(N5CCN(C(=O)/C(F)=C/c6ccccn6)C[C@@H]5C)nc(OC[C@@]56CCCN5C[C@H](F)C6)nc4c3F)c12 [Example 65, (Z)-1-((S)-4-(7-(8-ethynyl-7-fluoro-3-hydroxynaphthalen-1-yl)-8-fluoro-2-(((2R, 7aS)-2-fluorotetrahydro-1H-pyrrolizin-7a(5H)-yl)methoxy)pyrido[4,3-d]pyrimidin-4-yl)-3-methylpiperazin-1-yl)-2-fluoro-3-(pyridin-2-yl)prop-2-en-1-one]"
2,< 2,"C#Cc1c(F)ccc2cc(O)cc(-c3ncc4c(N5CCN(C(=O)/C(F)=C/c6ncccn6)C[C@@H]5C)nc(OC[C@@]56CCCN5C[C@H](F)C6)nc4c3F)c12 [Example 66, (Z)-1-((S)-4-(7-(8-ethynyl-7-fluoro-3-hydroxynaphthalen-1-yl)-8-fluoro-2-(((2R, 7aS)-2-fluorotetrahydro-1H-pyrrolizin-7a(5H)-yl)methoxy)pyrido[4,3-d]pyrimidin-4-yl)-3-methylpiperazin-1-yl)-2-fluoro-3-(pyrimidin-2-yl)prop-2-en-1-one]"
3,41,"Nc1nc2c(-c3ncc4c(N5CCN(C(=O)/C(F)=C/c6nccs6)CC5)nc(OC[C@@]56CCCN5C[C@H](F)C6)nc4c3F)c(F)cc(F)c2s1 [Example 67, (Z)-1-(4-(7-(2-amino-5,7-difluorobenzo[d]thiazol-4-yl)-8-fluoro-2-(((2R, 7aS)-2-fluorotetrahydro-1H-pyrrolizin-7a(5H)-yl)methoxy)pyrido[4,3-d]pyrimidin-4-yl)piperazin-1-yl)-2-fluoro-3-(thiazol-2-yl)prop-2-en-1-one]"
4,40,"N#CC[C@H]1CN(c2nc(OC[C@@]34CCCN3C[C@H](F)C4)nc3c(F)c(-c4cccc(F)c4C(F)(F)F)ncc23)CCN1C(=O)/C(F)=C/c1nccs1 [Example 71, 2-((S)-1-((Z)-2-fluoro-3-(thiazol-2-yl)acryloyl)-4-(8-fluoro-7-(3-fluoro-2-(trifluoromethyl)phenyl)-2-(((2R, 7aS)-2-fluorotetrahydro-1H-pyrrolizin-7a(5H)-yl)methoxy)pyrido[4,3-d]pyrimidin-4-yl)piperazin-2-yl)acetonitrile]"
5,440,"N#CC[C@H]1CN(c2nc(OC[C@@]34CCCN3C[C@H](F)C4)nc3c(F)c(-c4cccc(O)c4)ncc23)CCN1C(=O)/C(F)=C/c1nccs1 [Example 72, 2-((S)-4-(8-fluoro-2-(((2R, 7aS)-2-fluorotetrahydro-1H-pyrrolizin-7a(5H)-yl)methoxy)-7-(3-hydroxyphenyl)pyrido[4,3-d]pyrimidin-4-yl)-1-((Z)-2-fluoro-3-(thiazol-2-yl)acryloyl)piperazin-2-yl)acetonitrile]"
6,57,"C#Cc1cccc2cccc(-c3ncc4c(N5CCN(C(=O)/C(F)=C/c6ccccn6)C[C@H]5C)nc(OC[C@@]56CCCN5C[C@H](F)C6)nc4c3F)c12 [Example 75, (Z)-1-((3R)-4-(7-(8-ethynylnaphthalen-1-yl)-8-fluoro-2-(((2R, 7aS)-2-fluorotetrahydro-1H-pyrrolizin-7a(5H)-yl)methoxy)pyrido[4,3-d]pyrimidin-4-yl)-3-methylpiperazin-1-yl)-2-fluoro-3-(pyridin-2-yl)prop-2-en-1-one]"
7,590,"C#Cc1cccc2cccc(-c3ncc4c(N5CCN(C(=O)/C(F)=C/c6nccs6)C[C@H]5C)nc(OC[C@@]56CCCN5C[C@H](F)C6)nc4c3F)c12 [Example 76, (Z)-1-((3R)-4-(7-(8-ethynylnaphthalen-1-yl)-8-fluoro-2-(((2R, 7aS)-2-fluorotetrahydro-1H-pyrrolizin-7a(5H)-yl)methoxy)pyrido[4,3-d]pyrimidin-4-yl)-3-methylpiperazin-1-yl)-2-fluoro-3-(thiazol-2-yl)prop-2-en-1-one]"
8,120,"C#Cc1cccc2cccc(-c3ncc4c(N5CCCN(C(=O)/C(F)=C/c6ccccn6)CC5)nc(OC[C@@]56CCCN5C[C@H](F)C6)nc4c3F)c12 [Example 77, (Z)-1-(4-(7-(8-ethynylnaphthalen-1-yl)-8-fluoro-2-(((2R, 7aS)-2-fluorotetrahydro-1H-pyrrolizin-7a(5H)-yl)methoxy)pyrido[4,3-d]pyrimidin-4-yl)-1,4-diazepan-1-yl)-2-fluoro-3-(pyridin-2-yl)prop-2-en-1-one]"
9,220,"(Z)-1-(4-(7-(2-amino-7-fluorobenzo[d]thiazol-4-yl)-8-fluoro-2-(((2R, 7aS)-2-fluorotetrahydro-1H-pyrrolizin-7a(5H)-yl)methoxy)pyrido[4,3-d]pyrimidin-4-yl)piperazin-1-yl)-2-fluoro-3-(thiazol-2-yl)prop-2-en-1-one [Example 68]"
